Ring closure, isolated yield and ring closure, yield after HPLC data for ten compounds are collected here from patent US20260234163A1, “NOVEL COMPOUNDS AND USES THEREOF” (ACELINK THERAPEUTICS, INC., priority 2023, published 2026).

Read-outs that look alike come from different tables or passages of the source.

The conditions of series [1]: 21-membered ring.

As for `CCOC(=O)CC1c2cc(C)c3c(c2)CN(CC3)C(=O)c2ccc(cc2)COCCCn2nnc3c(C)c1ccc32` (stereo not shown), the ring closure, isolated yield (from CCOC(=O)CC(c1cc(C)c2c(c1)CNCC2)c1ccc2c(nnn2CCCOCc2ccc(C(=O)O)cc2)c1C, amide bond, 21-membered ring, HATU/DIEA, DMF, 131.5 mM, 20.0 °C, 2.0 h) is 77.9%.

Under “from CCOC(=O)CC(c1ccc2c(c1)CNCC2)c1ccc2c(nnn2CCOCCN2CCC(C(=O)O)CC2)c1C, amide bond, 21-membered ring, HATU/DIEA, DMF, 142.0 mM, 25.0 °C”, `CCOC(=O)CC1c2ccc3c(c2)CN(CC3)C(=O)C2CCN(CCOCCn3nnc4c(C)c1ccc43)CC2` (stereo not shown) registered a ring closure, isolated yield of 38.2%.

On to `CCOC(=O)CC1c2ccc3c(c2)CN(CC3)S(=O)(=O)c2ccc(cc2)OCC=CCn2nnc3c(C)c1ccc32` (stereo not shown), for which the ring closure, isolated yield (from C=CCOc1ccc(S(=O)(=O)N2CCc3ccc(C(CC(=O)OCC)c4ccc5c(nnn5C/C=C/C)c4C)cc3C2)cc1, rcm bond, 21-membered ring, Grubbs II, DCM, 40.0 mM, 25.0 °C, 19.0 h) is 12.9%.

`CCOC(=O)C[C@@H](c1ccc2c(c1)CNCC2)c1ccc2c(nnn2CCCOCC2CCN(C(=O)Oc3c(F)c(F)c(F)c(F)c3F)CC2)c1C` yielded a ring closure, yield after HPLC in series [1] (the molecule shown is the open-chain precursor, other bond, K2CO3/microwave, DMF, 24.7 mM, 120.0 °C) of 20.9%.

In turn, `CCOC(=O)CC1c2ccc3c(c2)CN(CC3)S(=O)(=O)c2ccc(cc2)OCCOCCn2nnc3c(C)c1ccc32` (stereo not shown) showed a ring closure, isolated yield (from CCOC(=O)CC(c1ccc2c(c1)CN(S(=O)(=O)c1ccc(O)cc1)CC2)c1ccc2c(nnn2CCOCCO)c1C, ether bond, 22-membered ring, DEAD/PPh3, DCM/THF, 28.8 mM, 20.0 °C, 4.0 h) of 73.6%.

In the case of `CCOC(=O)CC1c2ccc(C)c(c2)CN(C)C(=O)c2ccc(cc2)COCCCn2nnc3c(C)c1ccc32` (stereo not shown), the ring closure, isolated yield (from CCOC(=O)CC(c1ccc(C)c(CNC)c1)c1ccc2c(nnn2CCCOCc2ccc(C(=O)O)cc2)c1C, amide bond, 21-membered ring, HATU/DIEA, DMF, 46.6 mM, 20.0 °C, 2.0 h) was 95.2%.

Take `CCOC(=O)CC1c2ccc3c(c2)CN(CC3)S(=O)(=O)N2CCC(CC2)OCC=CCn2nnc3c(C)c1ccc32` (stereo not shown): the ring closure, yield after HPLC in series [1] (from C=CCOC1CCN(S(=O)(=O)N2CCc3ccc(C(CC(=O)OCC)c4ccc5c(nnn5C/C=C/C)c4C)cc3C2)CC1, rcm bond, Grubbs catalyst, DCM, 6.2 mM, 40.0 °C, 19.0 h) stood at 89.4%.

`CCOC(=O)CC1c2cccc(c2)CN(C)C(=O)c2ccc(cc2)COCCCn2nnc3c(C)c1ccc32` (stereo not shown): the ring closure, isolated yield (from CCOC(=O)CC(c1cccc(CNC)c1)c1ccc2c(nnn2CCCOCc2ccc(C(=O)O)cc2)c1C, amide bond, 21-membered ring, HATU/DIEA, DMF, 73.0 mM, 25.0 °C) is 58.2%.

`CCOC(=O)CC1c2ccc3c(c2)CN(CC3)C(=O)C2CCN(CCCCCn3nnc4c(C)c1ccc43)CC2` (stereo not shown) showed a ring closure, isolated yield (from CCOC(=O)CC(c1ccc2c(c1)CNCC2)c1ccc2c(nnn2CCCCCN2CCC(C(=O)O)CC2)c1C, amide bond, 21-membered ring, HATU/DIEA, DMF, 96.0 mM, 0.0 °C) of 79.5%.

In series [1] (the molecule shown is the open-chain precursor, other bond, K2CO3 (microwave), DMF, 10.2 mM, 130.0 °C, 2 steps), `CCOC(=O)CC(c1ccc2c(c1)CNCC2)c1ccc2c(nnn2CCCCCN2CCN(C(=O)Oc3ccc([N+](=O)[O-])cc3)CC2)c1C` (stereo not shown) gave a ring closure, yield after HPLC of 72%.
